Experiments:
Format in all cases: in vivo
[1] = test system: Amaranthus retroflexus; assay: Post-emergence herbicidal efficacy at 320 g/ha, AMARE; conditions: rated visually after about 3 weeks vs untreated controls, 100% = plants have died
Description: (§1) Unwanted plants/weeds: • ABUTH: Abutilon theophrasti • ALOMY: Alopecurus myosuroides • AMARE: Amaranthus retroflexus • DIGSA: Digitaria sanguinalis • ECHCG: Echinochloa crus-galli • KCHSC: Kochia scoparia • LOLRI: Lolium rigidum • MATIN: Matricaria inodora • POAAN: Poa annua • POLCO: Polygonum convolvulus • SETVI: Setaria viridis • STEME: Stellaria media • VERPE: Veronica persica • VIOTR: Viola tricolor A. Post-Emergence Herbicidal Efficacy at 320 g/ha
(§2) Seeds of mono- and dicotyledonous weed plants were placed in plastic pots in sandy loam soil (doubly sown with in each case one species of mono- or dicotyledonous weed plants per pot), covered with soil and cultivated in a greenhouse under controlled growth conditions. 2 to 3 weeks after sowing, the test plants were treated at the one-leaf stage. The compounds of the invention, formulated in the form of wettable powders (WP) or as emulsion concentrates (EC), were applied to the green parts of the plants as aqueous suspension or emulsion with addition of 0.5% additive at a water application rate equivalent to 600 litres per hectare. After the test plants had been kept in the greenhouse under optimum growth conditions for about 3 weeks, the activity of the preparations was rated visually in comparison to untreated controls.
(§3) For example, 100% activity=the plants have died, 0% activity=like control plants.
(§4) Tables A1 to A10 below show the effects of selected compounds of the general formula (I) according to Table 1 on various harmful plants and at an application rate corresponding to 320 g/ha, which were obtained by the trial procedure specified above.

[2] = test system: Kochia scoparia; assay: Post-emergence herbicidal efficacy at 320 g/ha, KCHSC; conditions: rated visually after about 3 weeks vs untreated controls, 100% = plants have died
Description: as §1, §2, §3, §4

[3] = test system: Poa annua; assay: Post-emergence herbicidal efficacy at 320 g/ha, POAAN; conditions: rated visually after about 3 weeks vs untreated controls, 100% = plants have died
Description: as §1, §2, §3, §4

[4] = test system: Veronica persica; assay: Post-emergence herbicidal efficacy at 320 g/ha, VERPE; conditions: rated visually after about 3 weeks vs untreated controls, 100% = plants have died
Description: as §1, §2, §3, §4

[5] = test system: Stellaria media; assay: Post-emergence herbicidal efficacy at 320 g/ha, STEME; conditions: rated visually after about 3 weeks vs untreated controls, 100% = plants have died
Description: as §1, §2, §3, §4

[6] = test system: Amaranthus retroflexus; assay: Pre-emergence herbicide efficacy at 320 g/ha, AMARE; conditions: scored visually after about 3 weeks vs untreated controls, 100% = plants have died
Description: as §1
(§5) Seeds of mono- and dicotyledonous weed plants were placed in plastic pots in sandy loam soil (doubly sown with one species each of mono- or dicotyledonous weed plants per pot) and covered with soil. The compounds of the invention, formulated in the form of wettable powders (WP) or as emulsion concentrates (EC), were then applied to the surface of the covering soil as aqueous suspension or emulsion with addition of 0.5% additive at a water application rate of 600 litres per hectare (converted). After the treatment, the pots were placed in a greenhouse and kept under good growth conditions for the test plants. After about 3 weeks, the efficacy of the preparations was scored visually in comparison with untreated controls as percentages.
as §3
(§6) Tables C1 to C12 below show the effects of selected compounds of the general formula (I) according to Table 1 on various harmful plants and at an application rate corresponding to 320 g/ha, which were obtained by the trial procedure specified above.

[7] = test system: Digitaria sanguinalis; assay: Pre-emergence herbicide efficacy at 320 g/ha, DIGSA; conditions: scored visually after about 3 weeks vs untreated controls, 100% = plants have died
Description: as §1, §5, §3, §6

[8] = test system: Matricaria inodora; assay: Pre-emergence herbicide efficacy at 320 g/ha, MATIN; conditions: scored visually after about 3 weeks vs untreated controls, 100% = plants have died
Description: as §1, §5, §3, §6

[9] = test system: Poa annua; assay: Pre-emergence herbicide efficacy at 320 g/ha, POAAN; conditions: scored visually after about 3 weeks vs untreated controls, 100% = plants have died
Description: as §1, §5, §3, §6

[10] = test system: Setaria viridis; assay: Pre-emergence herbicide efficacy at 320 g/ha, SETVI; conditions: scored visually after about 3 weeks vs untreated controls, 100% = plants have died
Description: as §1, §5, §3, §6

[11] = test system: Stellaria media; assay: Pre-emergence herbicide efficacy at 320 g/ha, STEME; conditions: scored visually after about 3 weeks vs untreated controls, 100% = plants have died
Description: as §1, §5, §3, §6

[12] = test system: Veronica persica; assay: Pre-emergence herbicide efficacy at 320 g/ha, VERPE; conditions: scored visually after about 3 weeks vs untreated controls, 100% = plants have died
Description: as §1, §5, §3, §6

[13] = test system: Digitaria sanguinalis; assay: Post-emergence herbicidal efficacy at 320 g/ha, DIGSA; conditions: rated visually after about 3 weeks vs untreated controls, 100% = plants have died
Description: as §1, §2, §3, §4

[14] = test system: Kochia scoparia; assay: Pre-emergence herbicide efficacy at 320 g/ha, KCHSC; conditions: scored visually after about 3 weeks vs untreated controls, 100% = plants have died
Description: as §1, §5, §3, §6

[15] = test system: Abutilon theophrasti; assay: Post-emergence herbicidal efficacy at 320 g/ha, ABUTH; conditions: rated visually after about 3 weeks vs untreated controls, 100% = plants have died
Description: as §1, §2, §3, §4

[16] = test system: Abutilon theophrasti; assay: Pre-emergence herbicide efficacy at 320 g/ha, ABUTH; conditions: scored visually after about 3 weeks vs untreated controls, 100% = plants have died
Description: as §1, §5, §3, §6

[17] = test system: Echinochloa crus-galli; assay: Post-emergence herbicidal efficacy at 320 g/ha, ECHCG; conditions: rated visually after about 3 weeks vs untreated controls, 100% = plants have died
Description: as §1, §2, §3, §4

[18] = test system: Echinochloa crus-galli; assay: Pre-emergence herbicide efficacy at 320 g/ha, ECHCG; conditions: scored visually after about 3 weeks vs untreated controls, 100% = plants have died
Description: as §1, §5, §3, §6

[19] = test system: Amaranthus retroflexus; assay: Post-emergence herbicidal efficacy at 80 g/ha, AMARE; conditions: rated visually after about 3 weeks vs untreated controls, 100% = plants have died
Description: as §1
(§7) Seeds of monocotyledonous and dicotyledonous weeds and crop plants were placed in sandy loam in plastic or organic planting pots, covered with soil and cultivated in a greenhouse under controlled growth conditions. 2 to 3 weeks after sowing, the test plants were treated at the one-leaf stage. The compounds of the invention, formulated in the form of wettable powders (WP) or as emulsion concentrates (EC), were then sprayed onto the green parts of the plants as aqueous suspension or emulsion with addition of 0.5% additive at a water application rate of 600 l/ha (converted). After the test plants had been kept in the greenhouse under optimum growth conditions for about 3 weeks, the activity of the preparations was rated visually in comparison to untreated controls. For example, 100% activity=the plants have died, 0% activity=like control plants.
(§8) Tables B1 to B11 below show the effects of selected compounds of the general formula (I) according to Table 1 on various harmful plants and an application rate corresponding to 80 g/ha, which were obtained by the experimental procedure mentioned above.

[20] = test system: Kochia scoparia; assay: Post-emergence herbicidal efficacy at 80 g/ha, KCHSC; conditions: rated visually after about 3 weeks vs untreated controls, 100% = plants have died
Description: as §1, §7, §8

[21] = test system: Veronica persica; assay: Post-emergence herbicidal efficacy at 80 g/ha, VERPE; conditions: rated visually after about 3 weeks vs untreated controls, 100% = plants have died
Description: as §1, §7, §8

[22] = test system: Amaranthus retroflexus; assay: Pre-emergence herbicide efficacy at 80 g/ha, AMARE; conditions: scored visually after about 3 weeks vs untreated controls, 100% = plants have died
Description: as §1
(§9) Seeds of monocotyledonous and dicotyledonous weed plants and crop plants were placed in plastic or organic planting pots and covered with soil. The compounds of the invention, formulated in the form of wettable powders (WP) or as emulsion concentrates (EC), were then applied to the surface of the covering soil as aqueous suspension or emulsion with addition of 0.5% additive at a water application rate equivalent to 600 l/ha. After the treatment, the pots were placed in a greenhouse and kept under good growth conditions for the test plants. After about 3 weeks, the efficacy of the preparations was scored visually in comparison with untreated controls as percentages. For example, 100% activity=the plants have died, 0% activity=like control plants.
(§10) Tables D1 to D12 below show the effects of selected compounds of the general formula (I) according to Table 1 on various harmful plants and an application rate corresponding to 80 g/ha, which were obtained by the experimental procedure mentioned above.

[23] = test system: Setaria viridis; assay: Pre-emergence herbicide efficacy at 80 g/ha, SETVI
Description: as §1, §9, §10

[24] = test system: Viola tricolor; assay: Pre-emergence herbicide efficacy at 80 g/ha, VIOTR
Description: as §1, §9, §10

Structure (SMILES) | Post-emergence efficacy at 320 g/ha against AMARE in % [1] [%] | Post-emergence efficacy at 320 g/ha against KCHSC in % [2] [%] | Post-emergence efficacy at 320 g/ha against VERPE in % [4] [%] | Post-emergence efficacy at 320 g/ha against STEME in % [5] [%] | Pre-emergence efficacy at 320 g/ha against AMARE in % [6] [%] | Pre-emergence efficacy at 320 g/ha against DIGSA in % [7] [%] | Pre-emergence efficacy at 320 g/ha against MATIN in % [8] [%] | Pre-emergence efficacy at 320 g/ha against POAAN in % [9] [%] | Pre-emergence efficacy at 320 g/ha against SETVI in % [10] [%] | Pre-emergence efficacy at 320 g/ha against STEME in % [11] [%] | Pre-emergence efficacy at 320 g/ha against VERPE in % [12] [%] | Pre-emergence efficacy at 320 g/ha against KCHSC in % [14] [%] | Post-emergence efficacy at 320 g/ha against ABUTH in % [15] [%] | further results
FC(F)(F)CCCCc1ccccc1Nc1ncc(Cl)cn1 [Example 1-2] | 100 | 90 | 100 | – | – | – | – | – | – | – | – | – | – | Post-emergence efficacy at 320 g/ha against POAAN in % [3]: 90%
N#Cc1cccc(Nc2ncc(Cl)cn2)c1Cc1ccc(F)cc1 [Example 1-23] | 100 | – | 100 | 100 | 100 | 90 | 100 | 100 | 100 | 90 | 90 | – | – | Post-emergence efficacy at 320 g/ha against POAAN in % [3]: 100%
N#Cc1cccc(Nc2ncc(Cl)cn2)c1-c1ccc(F)c(F)c1 [Example 1-29] | 100 | 100 | 100 | 90 | 100 | – | – | – | – | – | – | – | – | Post-emergence efficacy at 320 g/ha against DIGSA in % [13]: 90%
N#Cc1cccc(Nc2ncc(F)cn2)c1-c1ccc(F)c(F)c1 [Example 1-30] | 100 | 100 | 100 | 100 | 100 | 100 | 90 | 90 | 100 | 100 | 100 | 90 | – | –
Fc1cccc(Nc2ncccn2)c1-c1cc(C(F)F)no1 [Example 1-35] | 100 | 100 | 100 | 100 | 100 | 90 | – | 100 | 90 | 100 | 90 | 100 | 100 | Pre-emergence efficacy at 320 g/ha against ABUTH in % [16]: 100%
COc1cnc(Nc2cccc(F)c2-c2cc(C(F)F)no2)nc1 [Example 1-37] | 90 | 90 | 90 | – | 100 | 100 | – | 100 | 100 | 100 | – | 90 | 100 | Pre-emergence efficacy at 320 g/ha against ABUTH in % [16]: 90%
N#Cc1cccc(Nc2ncccn2)c1-n1cc(C(F)(F)F)cn1 [Example 1-40] | 90 | – | 90 | – | 100 | – | 90 | – | – | – | – | 90 | – | –
N#Cc1cnc(Nc2cccc(C#N)c2-n2cc(C(F)(F)F)cn2)nc1 [Example 1-42] | 100 | 90 | 90 | – | 90 | 100 | 100 | – | 90 | 90 | – | 90 | – | –
Cc1cccc(Nc2ncc(F)cn2)c1-n1cc(C(F)(F)F)cn1 [Example 1-50] | 90 | – | 90 | 90 | 100 | 90 | – | 90 | 100 | 100 | 90 | – | 90 | Post-emergence efficacy at 320 g/ha against ECHCG in % [17]: 90%; Pre-emergence efficacy at 320 g/ha against ABUTH in % [16]: 100%; Pre-emergence efficacy at 320 g/ha against ECHCG in % [18]: 100%
Cc1cnn(-c2c(C#N)cccc2Nc2ncc(F)cn2)c1 [Example 1-67] | 100 | 90 | 100 | 100 | 100 | – | – | 90 | 100 | 100 | 90 | 100 | 90 | Post-emergence efficacy at 80 g/ha against AMARE in % [19]: 100%; Post-emergence efficacy at 80 g/ha against KCHSC in % [20]: 90%; Post-emergence efficacy at 80 g/ha against VERPE in % [21]: 90%; Pre-emergence efficacy at 320 g/ha against ECHCG in % [18]: 100%; Pre-emergence efficacy at 80 g/ha against AMARE in % [22]: 100%; Pre-emergence efficacy against SETVI [23]: 100%; Pre-emergence efficacy against VIOTR [24]: 90%
O=C(CCCC(F)(F)F)c1cccnc1Nc1ncc(Cl)cn1 [Example 2-8] | – | – | – | – | – | – | – | – | – | – | – | – | – | Post-emergence efficacy at 80 g/ha against AMARE in % [19]: 100%; Post-emergence efficacy at 80 g/ha against KCHSC in % [20]: 90%; Post-emergence efficacy at 80 g/ha against VERPE in % [21]: 90%

Reference: patent US20250311727A1, “SUBSTITUTED 2-AMINOAZINES AND SALTS THEREOF, AND USE THEREOF AS HERBICIDAL ACTIVE SUBSTANCES” (BAYER AKTIENGESELLSCHAFT, priority 2022, published 2025)
